Values of other authors, collected in US20070287651A1, “Bleaching compositions” (The Procter & Gamble Company, priority 2006, published 2007).

Conditions: deionized water at 25° C. (definition)

c1ccc2oc(-c3ccc(-c4nc5ccccc5o4)s3)nc2c1 [Tinopal SOP, benzoxazole,2,2′-(thiophenaldyl)bis]
solubility in water: lower than 1 gram per liter
